US6063783A, “Analgesic use of triazolo-pyridazine derivatives” (Merck Sharp & Dohme Ltd., priority 1997, dated 2000)

How the values were obtained:
[1] = test system: carrageenan-induced hyperalgesia; assay: rat carrageenan-induced hyperalgesia assay; type: in vivo; details: male Sprague Dawley rats, oral, given 2 h after carrageenan, mechanical thresholds at 3 h, read-out: ID50, inhibition of carrageenan-induced hyperalgesia
Experimental: Carrageenan-induced hyperalgesia
Male Sprague Dawley rats (100-120 g) received an intraplantar injection of carrageenan (4.5 mg) and mechanical thresholds were determined 3 h later using a modified Ugo Basile Algesiometer. Control rats received saline (0.15 ml i.pl.). Hyperalgesia was defined as the difference in vocalisation threshold for saline- and carrageenan-injected rats. Paw pressure scores for drug-treated rats were expressed as a percentage of this response. Compound A (1, 3 or 10 mg/kg) or vehicle were administered 2 h after carrageenan.
(§1) Compound A was suspended in 0.5% methocel and administered orally. Doses refer to the free base.

chain pulling = chain pulling (sedation) in rats; type: in vivo, rat; details: food-deprived P.V.G. rats; oral doses of up to 100 mg/kg; chain pulls recorded for up to 60 min
Experimental: Response sensitivity training and testing was carried out in standard operant conditioning chambers. Each chamber was equipped with a chain suspended from the centre of the ceiling and connected to a micro switch. Food pellets were delivered into a food magazine positioned at floor level in the centre of the front wall. Food-deprived P.V.G. rats (280-380 g) were trained to pull a chain for access to food pellets according to a random interval (RI) 30 s schedule. Animals received Compound A at 1, 3, 10, 30 or 100 mg/kg or vehicle and the number of chain pulls recorded for up to 60 min. Response rates for drug-treated animals are then expressed as a percentage of response rates for vehicle-treated rats.
as §1

SMILES: Cn1ncnc1COc1nn2c(-c3ccccc3)nnc2cc1N1CCCC1 [Compound A, 6-(2-methyl-2H-1,2,4-triazol-3-ylmethoxy)-3-phenyl-7-(pyrrolidin-1-yl)-1,2,4-triazolo[4,3-b]pyridazine]
- ED50 [1]: 5.3 mg/kg
- effects on chain pulling (sedation) (chain pulling): no effects
